These compounds were tested against human KDR protein in HEK-293 cells (Homo sapiens (Human), UniProt P35968) (assay: KDR Cell Assay (phospho-KDR in HEK-293 cells expressing inducible KDR)). Conditions: pKDR Cell HEK 10% FBS IC50, HEK-293 cells expressing inducible KDR, VEGF stimulated.
Format: cell-based
Procedure, shortened: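 HEK-293 cells with inducible human KDR were treated with compound for 1 h in DMEM (0.25% DMSO final), then lysed. Phospho-KDR was quantified by Meso Scale immunoassay, expressed as percent of control, and IC50 taken where a 4-parameter logistic fit crossed 50 POC.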

Sequence of human KDR protein in HEK-293 cells (P35968 20-1356): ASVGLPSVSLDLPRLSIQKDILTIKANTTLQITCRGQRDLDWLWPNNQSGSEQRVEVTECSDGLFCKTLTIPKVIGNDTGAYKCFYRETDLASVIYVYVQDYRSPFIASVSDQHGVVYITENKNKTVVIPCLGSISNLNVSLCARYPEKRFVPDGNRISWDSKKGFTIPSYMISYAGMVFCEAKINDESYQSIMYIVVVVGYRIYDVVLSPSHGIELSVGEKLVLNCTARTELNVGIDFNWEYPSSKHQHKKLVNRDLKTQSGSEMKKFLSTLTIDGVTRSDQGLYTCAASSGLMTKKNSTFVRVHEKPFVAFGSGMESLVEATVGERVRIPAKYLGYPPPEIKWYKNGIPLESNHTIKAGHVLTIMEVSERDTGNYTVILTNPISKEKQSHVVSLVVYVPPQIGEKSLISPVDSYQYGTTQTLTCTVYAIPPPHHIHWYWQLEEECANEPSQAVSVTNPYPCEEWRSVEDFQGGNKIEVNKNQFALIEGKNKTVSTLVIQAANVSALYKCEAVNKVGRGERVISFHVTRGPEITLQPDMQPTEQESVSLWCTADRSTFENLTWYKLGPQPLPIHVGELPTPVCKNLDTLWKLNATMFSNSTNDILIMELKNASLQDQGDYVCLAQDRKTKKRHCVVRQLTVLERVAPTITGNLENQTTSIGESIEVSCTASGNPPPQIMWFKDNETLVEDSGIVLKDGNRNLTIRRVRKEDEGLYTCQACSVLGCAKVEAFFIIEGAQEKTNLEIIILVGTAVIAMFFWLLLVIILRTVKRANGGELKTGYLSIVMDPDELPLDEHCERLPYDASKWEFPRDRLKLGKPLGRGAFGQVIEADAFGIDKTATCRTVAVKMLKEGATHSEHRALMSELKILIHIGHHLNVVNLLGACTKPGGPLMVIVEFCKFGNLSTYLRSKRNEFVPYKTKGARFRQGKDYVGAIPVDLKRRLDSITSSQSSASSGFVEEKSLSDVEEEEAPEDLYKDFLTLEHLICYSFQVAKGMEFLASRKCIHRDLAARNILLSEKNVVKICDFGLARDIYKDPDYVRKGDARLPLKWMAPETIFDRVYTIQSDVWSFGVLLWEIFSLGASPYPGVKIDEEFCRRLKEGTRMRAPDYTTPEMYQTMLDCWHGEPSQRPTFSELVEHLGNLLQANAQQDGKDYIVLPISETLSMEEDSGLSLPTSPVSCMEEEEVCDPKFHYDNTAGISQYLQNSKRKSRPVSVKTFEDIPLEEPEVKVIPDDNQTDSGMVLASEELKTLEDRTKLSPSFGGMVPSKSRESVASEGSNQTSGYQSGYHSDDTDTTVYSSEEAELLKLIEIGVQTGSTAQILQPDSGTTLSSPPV

IC50	SMILES
1910 nM	CO[C@](C(=O)N1CCN(c2ccc(-c3cc(-c4cnn(C)c4)cn4ncc(C#N)c34)cn2)CC1)(c1ccccc1)C(F)(F)F [Example 371, (S)-6-(1-methyl-1H-pyrazol-4-yl)-4-(6-(4-(3,3,3-trifluoro-2-methoxy-2-phenylpropanoyl)piperazin-1-yl)pyridin-3-yl)pyrazolo[1,5-a]pyridine-3-carbonitrile]
1820 nM	Cn1cc(-c2cc(-c3ccc(N4CCN(C(=O)[C@@H](CO)c5ccccc5)CC4)nc3)c3c(C#N)cnn3c2)cn1 [Example 373, (R)-4-(6-(4-(3-hydroxy-2-phenylpropanol)piperazin-1-yl)pyridin-3-yl)-6-(1-methyl-1H-pyrazol-4-yl)pyrazolo[1,5-a]pyridine-3-carbonitrile]
841 nM	Cn1cc(-c2cc(-c3ccc(N4CCN(C(=O)N5CC[C@@H](c6ccccc6)C5)CC4)nc3)c3c(C#N)cnn3c2)cn1 [Example 375, (S)-6-(1-methyl-1H-pyrazol-4-yl)-4-(6-(4-(3-phenylpyrrolidine-1-carbonyl)piperazin-1-yl)pyridin-3-yl)pyrazolo[1,5-a]pyridine-3-carbonitrile]

Same assay, conditions: pKDR Cell HEK 10% FBS IC50, HEK-293 cells expressing inducible KDR, VEGF stimulated, 10% FBS

SMILES	IC50
CCN(CC)C(C(=O)N1CCN(c2ccc(-c3cc(-c4cnn(C)c4)cn4ncc(C#N)c34)cn2)CC1)c1ccccc1 (stereo not shown) [Example 364, 4-(6-(4-(2-(diethylamino)-2-phenylacetyl)piperazin-1-yl)pyridin-3-yl)-6-(1-methyl-1H-pyrazol-4-yl)pyrazolo[1,5-a]pyridine-3-carbonitrile bis(2,2,2-trifluoroacetate)]	4360 nM
Cn1cc(-c2cc(-c3ccc(N4CCN(C(=O)Cc5ccc(C#N)cc5)CC4)nc3)c3c(C#N)cnn3c2)cn1 [Example 365, 4-(6-(4-(2-(4-cyanophenyl)acetyl)piperazin-1-yl)pyridin-3-yl)-6-(1-methyl-1H-pyrazol-4-yl)pyrazolo[1,5-a]pyridine-3-carbonitrile 2,2,2-trifluoroacetate]	597 nM
COCCn1ccc(C(=O)N2CCN(c3ccc(-c4cc(-c5cnn(C)c5)cn5ncc(C#N)c45)cn3)CC2)n1 [Example 366, 4-(6-(4-(1-(2-methoxyethyl)-1H-pyrazole-3-carbonyl)piperazin-1-yl)pyridin-3-yl)-6-(1-methyl-1H-pyrazol-4-yl)pyrazolo[1,5-a]pyridine-3-carbonitrile bis(2,2,2-trifluoroacetate)]	422 nM
CCCc1onc(C)c1C(=O)N1CCN(c2ccc(-c3cc(-c4cnn(C)c4)cn4ncc(C#N)c34)cn2)CC1 [Example 367, 4-yl)-4-(6-(4-(3-methyl-5-6-(1-methyl-1H-pyrazol-propylisoxazole-4-carbonyl)piperazin-1-yl)pyridin-3-yl)pyrazolo[1,5-a]pyridine-3-carbonitrile 2,2,2-trifluoroacetate]	355 nM
Cn1cc(-c2cc(-c3ccc(N4CCN(C(=O)C(c5ccccc5)N5CCCCC5)CC4)nc3)c3c(C#N)cnn3c2)cn1 (stereo not shown) [Example 368, 6-(1-methyl-1H-pyrazol-4-yl)-4-(6-(4-(2-phenyl-2-(piperidin-1-yl)acetyl)piperazin-1-yl)pyridin-3-yl)pyrazolo[1,5-a]pyridine-3-carbonitrile bis(2,2,2-trifluoroacetate)]	1850 nM
Cn1cc(-c2cc(-c3ccc(N4CCN(C(=O)C5(c6cccnc6)CC5)CC4)nc3)c3c(C#N)cnn3c2)cn1 [Example 369, 6-(1-methyl-1H-pyrazol-4-yl)-4-(6-(4-(1-(pyridine-3-yl)cyclopropane-1-carbonyl)piperazin-1-yl)pyridin-3-yl)pyrazolo[1,5-a]pyridine-3-carbonitrile bis(2,2,2-trifluoroacetate)]	1270 nM
Cn1cc(-c2cc(-c3ccc(N4CCN(C(=O)c5cc(C6CC6)[nH]n5)CC4)nc3)c3c(C#N)cnn3c2)cn1 [Example 370, 4-(6-(4-(5-cyclopropyl-1H-pyrazole-3-carbonyl)piperazin-1-yl)pyridin-3-yl)-6-(1-methyl-1H-pyrazol-4-yl)pyrazolo[1,5-a]pyridine-3-carbonitrile bis(2,2,2-trifluoroacetate)]	29.8 nM
